Assay results: patent publication US20040220164A1, “Triaza compound immunoregulatory agents” (priority 2001, published 2004)
≈ marks a conversion by molar mass, not a printed value. Read-outs that look alike come from different tables or passages of the source.

Columns and labels:
[1] = target: T1, CD4 (Homo sapiens, UniProt P01730); assay: CD4 down-modulation, flow cytometry with FITC-conjugated anti-CD4 (SK3) mAb, MT-4 cells; assay type: cell-based; parameters: To study the effect of the CADA derivatives on surface CD4 antigen expression, MT-4 and SupT1 cells were incubated; endogenous in cells; host or cells: MT-4, SupT1, PBMC; settings: for down-regulation of CD4 receptor expression / IC50: MT-4 cells; for down-regulation of CD4 receptor expression: 4 days (FIG. 5); for IC50: day 3, read-out: IC50 CD4 (50% inhibition of extracellular CD4 expression) (converted)
[2] = Cytotoxicity assay (trypan blue exclusion, propidium iodide); assay type: cell-based, human; settings: human, read-out: CC50 (50% cytotoxic concentration)
Procedure: Cytotoxicity Assay. Cellular toxicity of the compounds was measured by trypan blue exclusion and also by Propidium Iodide by flow cytometry after 3 or 4 days of incubation, in parallel with the CD4 antigen expression. The CC50 value of each CADA analog is the concentration (in μg/ml) required to reduce the viability of the cells by 50%.

[3] = tested on: CXCR4; assay: Cell surface expression of HIV coreceptor; assay type: cell-based, human; settings: incubation of the cells with CADA for 4 days
Procedure: (§1) Expression of various other surface antigens was also examined in MT-4 cells, SupT1 cells and PBMCs after incubation with CADA (16 μM) or CADA-free medium at 37° C. for 4 days. After washing with phosphate-buffered saline (PBS) containing 2% FCS(fetal calf serum), the cells were incubated with mAb (as indicated in Table 1) for 20 min at 4° C. Then the cells were washed, fixed with 1% formaldehyde and analyzed by flow cytometry. All mAbs were purchased from Becton-Dickinson (Erembodegem, Belgium).

[4] = tested on: CCR5; assay: Cell surface expression of HIV coreceptor; assay type: cell-based, human; settings: incubation of the cells with CADA for 4 days
Procedure: as §1

[5] = target: T1, CD4; assay: Quantification of the CD4 receptor by antibody binding; assay type: cell-based; parameters: endogenous in cells; the paragraph deals with MT-4, SupT1 cells and PBMCs; settings: after treatment with CADA
Procedure: (§2) Table 4 presents the results for MT-4 cells pretreated with CADA for 1 day at 8.1 μM and then infected with the HIV-1 strain NL4.3 or RF in the presence or absence of CADA. […] As three CD4 binding events are needed to efficiently activate HIV-1 Env trimers (Layne, S. P., et al., Nature 346: 602-605 (1990)), multimeric CD4 binding is required for HIV infection, further confirming that receptor density plays a crucial role in the efficiency of viral infectivity (Platt, E. J., et al., J. Virol. 71: 883-890 (1997)). […] Primary HIV isolates seem to be much more dependent on the level of CD4 expression (Kabat; D., et al., J. Virol. 68:2570-2577 (1994)). […] Although CD4-independent viruses are described (Hofflian, T. L., et al., Proc. Natl. Acad. Sci. U.S.A. 96: 63 59-6364 (1999)), these are much more sensitive to neutralization by antibodies, which explains the rarity of CD4-independent wild-type HIV variants (Kolchinski, P., et al., J. Virol. 75: 204 1-2050 (2001)).

[6] = tested on: HIV-1 strain NL4.3; assay: Anti-HIV-1 assay (p24 Ag ELISA); assay type: cell-based; settings: for IC50: read-out: IC50 against HIV-1 NL4.3; for p24 viral core antigen in supernatant: MT-4, NL4.3
Procedure: The antiviral activity of CADA against HIV-1 and RHV-7 was investigated. PBMCs and […] cell-depleted PBMCs (removed with CD8 magnetic beads; Dynal AS, Oslo, Norway), previously activated with purified PHA (2 μg/ml) and rhIL-2 (1 ng/ml) for 3 days, were pelleted and exposed to HIV-1 (1 ng p24 Ag per 10^6 cells) for 2 hours at 370C. Then the cells were washed three times with warm medium and cultured in complete medium containing rhIL-2 (1 ng/ml) in the presence or absence of different concentrations of CADA hydrochloride. The anti-HIV-1 assays were also performed in MT-4 and SupT1 cells. CADA hydrochloride was diluted in the plates, then the MT-4 cells or SupT1 cells were added and finally the T-tropic HIV-1 strains. The supernatant was collected at day 5 for MT-4 cells, day 8 for SupT1 cells and day 12 for PBMCs, and stored at −20° C. and analyzed for HIV-1 core antigen by p24 Ag ELISA (NEN, Brussels, Belgium). The SupT1 cells were refreshed on day 4, and half of the medium and cells were replaced and fresh CADA-free medium was added. For the PBMCs, fresh culture medium was added at day 6 containing rhIL-2 (but no CADA). For the anti-HHV-7 assays in PBMCs, CADA hydrochloride was diluted in a plate, 2×10˜cells were added and then HHV-7 (KHR strain) was added in complete medium containing rhIL-2 (1 ng/ml). Fresh culture medium was added again at day 6 containing rhIL-2 (but no CADA). The same infection protocol was used for the SupT1 cells, but without rhIL-2. The SupT1 cells were refreshed on day 4 and day 8, half of the medium and the cells were replaced, and fresh medium without CADA was added. The HHV-7 antigen expression was monitored (at day 12) with a specific mAb to HHV-7 (RK-4) (Advanced Biotechnologies, Columbia, Md.) by flow cytometry, as described previously (Thang, Y., et al., Antiviral Res. 43:23-35 (1999)).
as §2

For `C=C1CN(S(=O)(=O)c2ccc(C)cc2)CCCN(C(=O)OCCC)CCCN(S(=O)(=O)c2ccc(C)cc2)C1` [QJ033], the “down-regulation of CD4 receptor expression” value (“down-regulation” below) ([1]; 0.4 μg/ml) was “nor significant CD4 down-regulation”, the “down-regulation” value ([1]; 2 μg/ml) was 69% and the IC50 [1] was 2060 nM. The “CD4 receptor down-modulating activity, fold higher than compound 95-213” value ([1]; compared to 95-213) was 5 fold, the CC50 ([2]; MT-4 cells) was 25.5 µg/mL (≈ 44.1 µM) and the CC50 ([2]; SupT1 cells) was 32.5 µg/mL (≈ 56.3 µM).
With `C=C1CN(S(=O)(=O)c2ccc(C)cc2)CCCN(CC2CCCCC2)CCCN(S(=O)(=O)c2ccc(C)cc2)C1` [QJ028] the “down-regulation” value ([1]; 0.4 μg/ml) was 73%, the IC50 [1] was 357 nM and the “CD4 down-regulating potency, fold more active than CADA” value ([1]; compared to CADA) was 2 fold. It also gave a CC50 ([2]; MT-4 cells) of 20.7 µg/mL (≈ 35.2 µM) and a CC50 ([2]; SupT1 cells) of 28.1 µg/mL (≈ 47.8 µM).
With `C=C1CN(S(=O)(=O)c2ccc(C)cc2)CCCN(Cc2ccccc2)CCCN(S(=O)(=O)c2ccc(C)cc2)C1` [CADA] the “cell surface expression of CXCR4” value [3] was “remained unchanged”, the “cell surface expression of CCR5” value [4] was “remained unchanged” and the “down-regulation” value ([1]; 0.08 μg/ml) was “no inhibitory effect”. The “down-regulation” value ([1]; 0.4 μg/ml) was 58%, the “down-regulation” value ([1]; 2 μg/ml) was “significantly down-modulated” and the “down-regulation” value ([1]; 10 μg/ml) was “significantly down-modulated”. The IC50 [1] was 602 nM, the “amount of CD4 Ab bound to the cells” value [5] was “approximately 5,000 /cell” and the “decrease in bound antibody” value [5] was roughly 90%. It also gave a CC50 ([2]; MT-4 cells) of 23.6 µg/mL (≈ 40.6 µM), a CC50 ([2]; SupT1 cells) greater than 50 µg/mL and an IC50 ([6]; Human immunodeficiency virus 1, MT4, MT-4 cells) of 500 nM. The IC50 ([6]; Human immunodeficiency virus 1, PBMC) was 1600 nM, the IC50 ([6]; Human immunodeficiency virus 1, SUP-T1, SupT1 cells) was 3100 nM and the “p24 viral core antigen in supernatant” value ([6]; cells pre-treated with CADA hydrochloride 8.1 μM 24 hours, medium without CADA after infection, untreated control 158627) was 34839 pg/mL. For the same compound, the “p24 viral core antigen in supernatant” value ([6]; not pre-treated, CADA 0.13 μM) was 127838 pg/mL, the “p24 viral core antigen in supernatant” value ([6]; not pre-treated, CADA 0.6 μM) was 63098 pg/mL and the “p24 viral core antigen in supernatant” value ([6]; not pre-treated, CADA 3.2 μM) was less than 5 pg/mL. For the same compound, the “p24 viral core antigen in supernatant” value ([6]; pre-treated (CADA 8.1 μM, 24 hours), CADA 0.13 μM after infection) was 33785 pg/mL, the “p24 viral core antigen in supernatant” value ([6]; pre-treated (CADA 8.1 μM, 24 hours), CADA 0.6 μM after infection) was less than 5 pg/mL and the “p24 viral core antigen in supernatant” value ([6]; pre-treated (CADA 8.1 μM, 24 hours), CADA 3.2 μM after infection) was less than 5 pg/mL.
